# Laboratory results as given in ChEMBL document CHEMBL1137565, “Discovery of novel 8-azoniabicyclo[3.2.1]octane carbamates as muscarinic acetylcholine receptor antagonists” (Bioorg Med Chem Lett, 2007).
# Tests used:
# [1] = molecular target: Muscarinic acetylcholine receptor M3 (Homo sapiens, UniProt P20309); assay: Antagonist activity at cloned muscarinic M3 receptor expressed in CHO cells by measuring calcium mobilization; format: functional, cell-based
# [2] = molecular target: T1, Muscarinic acetylcholine receptor M2 (Homo sapiens, UniProt P08172); assay: Antagonist activity at cloned muscarinic M2 receptor expressed in CHO cells by measuring calcium mobilization; format: functional, cell-based
# T1 sequence (P08172 whole entry): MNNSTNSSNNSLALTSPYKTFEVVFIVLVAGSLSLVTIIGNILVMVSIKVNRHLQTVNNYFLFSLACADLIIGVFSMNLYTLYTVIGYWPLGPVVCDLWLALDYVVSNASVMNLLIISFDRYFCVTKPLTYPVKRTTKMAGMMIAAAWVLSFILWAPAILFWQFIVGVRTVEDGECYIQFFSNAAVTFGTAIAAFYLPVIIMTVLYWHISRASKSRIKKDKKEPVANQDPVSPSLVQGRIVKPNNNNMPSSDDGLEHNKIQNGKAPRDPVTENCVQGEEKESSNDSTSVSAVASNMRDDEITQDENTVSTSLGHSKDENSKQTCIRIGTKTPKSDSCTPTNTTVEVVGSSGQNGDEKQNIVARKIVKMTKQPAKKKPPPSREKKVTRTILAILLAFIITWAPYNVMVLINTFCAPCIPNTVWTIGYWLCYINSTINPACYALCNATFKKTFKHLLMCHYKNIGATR
# [3] = molecular target: Muscarinic acetylcholine receptors; M2 & M3 (Homo sapiens) (UniProt P20309+P08172); assay: Selectivity for cloned muscarinic M3 receptor over cloned muscarinic M2 receptor
# [4] = species on record: Mus musculus; assay: Effect on metacholine-induced bronchoconstriction in mouse assessed as bronchoprotection at 5 ug after 15 mins; format: functional
# [5] = molecular target: Muscarinic acetylcholine receptor M1 and M3 (Homo sapiens) (UniProt P20309+P11229); assay: Selectivity for cloned muscarinic M3 receptor over cloned muscarinic M1 receptor
# [6] = molecular target: T2, Muscarinic acetylcholine receptor M1 (Homo sapiens, UniProt P11229); assay: Antagonist activity at cloned muscarinic M1 receptor expressed in CHO cells by measuring calcium mobilization; format: functional, cell-based
# T2 sequence (P11229 whole entry): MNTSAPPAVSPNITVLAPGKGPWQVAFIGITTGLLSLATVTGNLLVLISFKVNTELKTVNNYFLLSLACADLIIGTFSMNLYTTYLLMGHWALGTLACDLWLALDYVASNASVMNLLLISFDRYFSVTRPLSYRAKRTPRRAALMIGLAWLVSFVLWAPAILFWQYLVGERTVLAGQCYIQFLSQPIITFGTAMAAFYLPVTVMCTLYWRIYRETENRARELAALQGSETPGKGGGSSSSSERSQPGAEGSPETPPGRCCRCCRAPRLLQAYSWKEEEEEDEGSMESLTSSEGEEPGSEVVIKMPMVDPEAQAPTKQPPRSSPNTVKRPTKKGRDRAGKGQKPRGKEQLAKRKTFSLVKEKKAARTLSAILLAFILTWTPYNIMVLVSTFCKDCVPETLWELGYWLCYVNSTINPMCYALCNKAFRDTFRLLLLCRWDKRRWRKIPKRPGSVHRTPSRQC
# [7] = species on record: Mus musculus; assay: Effect on metacholine-induced bronchoconstriction in mouse assessed as bronchoprotection at 5 ug after 5 hrs; format: functional
# Sequence of Muscarinic acetylcholine receptor M3 (P20309 whole entry): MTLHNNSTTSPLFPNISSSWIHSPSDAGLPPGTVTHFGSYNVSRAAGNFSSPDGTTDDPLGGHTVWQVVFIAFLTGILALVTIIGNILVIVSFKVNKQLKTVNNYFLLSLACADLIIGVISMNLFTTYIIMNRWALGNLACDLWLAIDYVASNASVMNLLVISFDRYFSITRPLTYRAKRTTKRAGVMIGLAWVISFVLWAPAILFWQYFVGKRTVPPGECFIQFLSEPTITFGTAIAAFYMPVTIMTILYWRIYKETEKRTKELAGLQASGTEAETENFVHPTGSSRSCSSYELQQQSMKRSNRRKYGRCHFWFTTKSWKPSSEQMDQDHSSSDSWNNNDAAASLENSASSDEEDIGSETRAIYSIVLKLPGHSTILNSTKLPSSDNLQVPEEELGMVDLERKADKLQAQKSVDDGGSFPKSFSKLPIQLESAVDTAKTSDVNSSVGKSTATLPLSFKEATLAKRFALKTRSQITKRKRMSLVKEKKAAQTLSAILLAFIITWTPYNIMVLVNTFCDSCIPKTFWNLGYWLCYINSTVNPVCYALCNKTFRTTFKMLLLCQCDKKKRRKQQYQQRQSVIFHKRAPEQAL
# Sequence of Muscarinic acetylcholine receptor M1 and M3 (Homo sapiens) (P20309 whole entry, looked up, one chain of several): as the sequence (P20309 whole entry) above
Compound,IC50 [1] [nM],IC50 [2] [nM],Ratio IC50 [3],Activity [4] [%],Ratio IC50 [5],IC50 [6] [nM],Activity [7] [%]
C[N+]1(C)[C@@H]2CC[C@H]1C[C@@H](OC(=O)N(Cc1ccsc1)c1ccccc1)C2.[Br-],2.8,30.2,10.8,85,0.9,2.6,–
CN1[C@@H]2CC[C@H]1C[C@@H](OC(=O)N(Cc1ccccc1Br)c1ccccc1)C2,1140,1400,1.2,–,1.2,1390,–
Cc1ccoc1CN(C(=O)O[C@@H]1C[C@H]2CC[C@@H](C1)N2C)c1ccccc1,428,468,1.1,–,0.8,349,–
Cc1ccsc1CN(C(=O)O[C@H]1C[C@H]2CC[C@@H](C1)[N+]2(C)C)c1ccccc1,6.4,34.7,5.4,–,0.6,3.8,–
COc1ccc(CN(C(=O)O[C@H]2C[C@H]3CC[C@@H](C2)[N+]3(C)C)c2ccccc2)cc1,154,688,4.4,–,0.6,86,–
C[N+]1(C)[C@@H]2CC[C@H]1C[C@H](OC(=O)N(Cc1ccoc1)c1ccccc1)C2,16,53.7,3.4,–,0.8,12.2,–
CN1[C@@H]2CC[C@H]1C[C@H](OC(=O)N(Cc1ccccc1)c1ccsc1)C2,10.9,39.1,3.6,–,1.7,19.1,–
CN1[C@@H]2CC[C@H]1C[C@H](OC(=O)N(Cc1ccc(Br)cc1)c1ccccc1)C2,721,1420,2,–,1.1,813,–
C[N+]1(C)[C@@H]2CC[C@H]1C[C@H](OC(=O)N(Cc1cccc(Br)c1)c1ccccc1)C2,342,520,1.5,–,0.6,210,–
CN1[C@@H]2CC[C@H]1C[C@H](OC(=O)N(Cc1ccccc1)c1cccs1)C2,22.9,26.5,1.2,–,2,45.1,–
CN1[C@@H]2CC[C@H]1C[C@@H](OC(=O)N(Cc1ccc(C#N)cc1)c1ccccc1)C2,1160,1350,1.1,–,0.7,847,–
CN1[C@@H]2CC[C@H]1C[C@@H](OC(=O)N(CC1CCCCC1)c1ccsc1)C2,109,271,2.5,–,1.1,126,–
CN1[C@@H]2CC[C@H]1C[C@H](OC(=O)N(Cc1cccs1)c1ccccc1)C2,20.3,38.2,1.9,–,2.4,48.3,–
Cc1ccc(CN(C(=O)O[C@@H]2C[C@H]3CC[C@@H](C2)[N+]3(C)C)c2ccccc2)s1,21.2,60.8,2.9,–,0.8,15.8,–
Cc1ccsc1CN(C(=O)O[C@H]1C[C@H]2CC[C@@H](C1)N2C)c1ccccc1,108,191,1.8,–,1.1,117,–
C[N+]1(C)[C@@H]2CC[C@H]1C[C@H](OC(=O)N(Cc1cccs1)c1ccccc1)C2.[Br-],2.3,12.5,5.4,85,1,2.4,–
C[N+]1(C)[C@@H]2CC[C@H]1C[C@H](OC(=O)N(Cc1ccc(Br)cc1)c1ccccc1)C2,56.6,400,7.1,–,0.6,33.4,–
C[N+]1(C)[C@@H]2CC[C@H]1C[C@H](OC(=O)N(Cc1ccccc1)c1cccs1)C2.[Br-],3,13.8,5.7,85,0.2,2.7,80

Compound,IC50 [1] [nM],IC50 [2] [nM],Ratio IC50 [3],Activity [4] [%],Ratio IC50 [5],IC50 [6] [nM],Activity [7] [%]
COc1ccc(CN(C(=O)O[C@H]2C[C@H]3CC[C@@H](C2)N3C)c2ccccc2)cc1,776,1360,1.8,–,0.9,734,–
C[N+]1(C)[C@@H]2CC[C@H]1C[C@H](OC(=O)N(CC1CCCCC1)c1ccsc1)C2,11.3,55.9,5,–,0.5,5.8,–
Cc1ccoc1CN(C(=O)O[C@H]1C[C@H]2CC[C@@H](C1)[N+]2(C)C)c1ccccc1,42.3,229,5.4,–,0.4,15.2,–
CN1[C@@H]2CC[C@H]1C[C@H](OC(=O)N(Cc1ccoc1)c1ccccc1)C2,57.3,82.5,1.4,–,1.5,84.5,–
Cc1ccc(CN(C(=O)O[C@@H]2C[C@H]3CC[C@@H](C2)N3C)c2ccccc2)s1,262,410,0.4,–,2,518,–
CN1[C@@H]2CC[C@H]1C[C@H](OC(=O)N(Cc1ccsc1)c1ccsc1)C2,7.2,19.6,2.7,–,1.9,13.8,–
CN1[C@@H]2CC[C@H]1C[C@@H](OC(=O)N(Cc1ccsc1)c1ccccc1)C2,27.5,90.7,3.3,–,2.7,73.8,–
C[N+]1(C)[C@@H]2CC[C@H]1C[C@@H](OC(=O)N(Cc1ccc(C#N)cc1)c1ccccc1)C2,714,1490,2.1,–,0.4,258,–
C[N+]1(C)[C@@H]2CC[C@H]1C[C@H](OC(=O)N(Cc1ccccc1)c1ccccc1)C2.[Br-],4.6,48,10.4,85,1,4.5,–
C[N+]1(C)[C@@H]2CC[C@H]1C[C@@H](OC(=O)N(Cc1ccsc1)c1ccsc1)C2.[Br-],1,7.2,7.2,85,1.6,1.6,–
CN1[C@@H]2CC[C@H]1C[C@H](OC(=O)N(Cc1ccccc1)c1ccccc1)C2,74.5,254,3.4,–,2.2,161,–
COc1cccc(CN(C(=O)O[C@@H]2C[C@H]3CC[C@@H](C2)[N+]3(C)C)c2ccccc2)c1,972,1000,1,–,0.6,612,–
C[N+]1(C)[C@@H]2CC[C@H]1C[C@H](OC(=O)N(Cc1ccccc1Br)c1ccccc1)C2,407,666,1.6,–,1,420,–
COc1cccc(CN(C(=O)O[C@@H]2C[C@H]3CC[C@@H](C2)N3C)c2ccccc2)c1,2140,1170,0.5,–,0.6,1210,–
CN1[C@@H]2CC[C@H]1C[C@@H](OC(=O)N(Cc1cccc(Br)c1)c1ccccc1)C2,2310,2160,0.9,–,0.9,1960,–
CN1[C@@H]2CC[C@H]1C[C@@H](OC(=O)N(Cc1ccc(C#N)cc1)c1ccsc1)C2,137,363,2.6,–,0.6,75.8,–
C[N+]1(C)[C@@H]2CC[C@H]1C[C@@H](OC(=O)N(Cc1cccc(C#N)c1)c1ccsc1)C2,137,638,4.7,–,0.4,55.6,–
